According to patent US20150297591A1, “METHODS OF TREATING PULMONARY FIBROSIS” (Duke University, priority 2012, published 2015):

How the values were obtained:
[1] = following RT; by decreasing free radical injury; cited from earlier work
C57L/J (L/J) mice [2] = assay: C57L/J model of radiation pneumonitis (15 Gy thoracic RT), SMA immunostaining of lung; assay type: in vivo, mouse
Description: (§1) In a second series of experiments, C57L/J (L/J) mice were treated with 15 Gy of thoracic radiation. L/J mice are exquisitely sensitive to even low doses of RT, and rapidly develop both pneumonitis and fibrosis. Groups of L/J mice were injected intraperitoneally with PBS, 77427 or 2A11, given as a single dose (20 nmole per mouse) at 24 hours post-RT.
It was recently observed by Zelcko Vujaskovic et al that C57L/J (L/J) mice have radiation sensitivity very similar to humans^19, making the L/J model of radiation-pneumonitis most clinically relevant. Using this L/J model, we treated mice IP with a single dose of 77427 (10 nmol per mouse) given IP at 24 hours post-RT. At 15 weeks later, we observed early evidence of pulmonary fibrosis that was abrogated by the single dose of 77427 (FIG. 3). […] Therefore, we have included a claim that GRP blockade may be a treatment to prevent, arrest, or reverse pulmonary arteriopathy leading to pulmonary hypertension, another serious and poorly understood medical condition that is now treated symptomatically.

C57L/J (L/J) mice [3] = assay: C57L/J model, toluidine blue staining for mast cells in lung sections; assay type: in vivo, mouse; details: 15 weeks post-RT, single dose 24 h post-RT
Description: as §1
There were no detectable subpleural or interstitial mast cells in any sham controls, nor in any lungs at 10 weeks post-RT. At 15 weeks post-RT there was a dramatic accumulation of mast cells subpleurally (black arrows) and in the alveolar interstitium (red arrows). These were most abundant in mice treated with RT+PBS (FIG. 8A), with a reduction by over 50% in mice give 77427 (FIG. 8B). Total numbers of subpleural mast cells have been quantified for all of the lung tissue on each slide and will be normalized for the length of pleura present.

C57BL/6 mice = assay: Radiation fibrosis model in C57BL/6 mice (15 Gy thoracic RT), SMA immunostaining of lung; assay type: in vivo, mouse; details: C57BL/6 lungs 20 wks post-15 Gy; 77427 IP twice weekly for 20 weeks; vs RT+PBS
Description: Our first investigation tested the hypothesis that GRP contributes to RTP using an established mouse model of radiation fibrosis in C57BL/6 mice, which are prone to fibrosis. Following exposure to high-dose thoracic radiation (15 Gy), we treated mice intraperitoneally (IP) with either PBS or GRP blockade by using small molecule 77427. We quantified results of immunohistochemistry by using quantitative image analysis with ImageJ to determine whether GRP contributes to RT-induced inflammatory responses and/or fibrosis, specifically including assessment of active TGFβsignaling^7. As noted above, the first investigation (FIGS. 1 and 2) tested the hypothesis that GRP contributes to RTP using an established mouse model of radiation fibrosis in C57BL/6 mice. Following exposure to high-dose thoracic radiation (15 Gy), we treated mice intraperitoneally (IP) with either PBS or GRP blockade by using small molecule 77427. We quantified results of immunohistochemistry by using quantitative image analysis with ImageJ to determine whether GRP contributes to RT-induced inflammatory responses and/or fibrosis, specifically including assessment of active TGFβ signaling^7. In FIG. 1B, note that there is extensive immunostaining for myofibroblasts in the alveolar walls (arrows) in mice exposed to RT 20 weeks earlier and given only PBS. […]

C57L/J (L/J) mice [4] = assay: C57L/J model, Masson's trichrome staining for collagen in alveoli; assay type: in vivo, mouse
Description: as §1
In normal, Sham-irradiated lung (FIG. 5A), there are only traces of green collagen staining in the alveolar walls (arrows). In contrast, 15 weeks post-RT, early collagen deposition is widespread throughout the alveolar walls.
We quantified the area of green trichrome staining in the trichrome-stained slides (including those shown in FIG. 5), using ImageJ, normalized for the total area of alveolar tissue in the same photomicrograph, similar to the analysis used for FIG. 4.

C57L/J (L/J) mice [5] = assay: C57L/J model, hydroxyproline assay on whole mouse lungs (total lung collagen); assay type: in vivo; details: 15 weeks post-RT, single dose, initial assay results
Description: as §1
As a second measure of pulmonary collagen levels, we carried out the hydroxyproline assay on whole mouse lungs from the same groups of mice as given in the legend to FIG. 3. There is a trend toward increased collagen at 15 weeks post-RT, which is confounded to some extent by the presence of collagen in connective tissue of blood vessels and airways in normal lung. Additional samples are being assayed in the near future.

SMILES | severity of RTP [1] | SMA+ myofibroblasts in small distal blood vessels (C57L/J (L/J) mice [2]; C57L/J lung 15 wks post-15 Gy, single dose IP 24 h post-RT) | early evidence of pulmonary fibrosis (SMA+ cells) (C57L/J (L/J) mice [2]; C57L/J, 15 weeks post-RT, single dose 10 nmol per mouse IP at 24 hours post-RT) | reduction of mast cells (subpleural and alveolar interstitium) versus RT+PBS (C57L/J (L/J) mice [3]) | subpleural mast cells (toluidine blue staining) (C57L/J (L/J) mice [3]) | interstitial SMA staining (myofibroblasts in alveolar walls), early indicator of radiation fibrosis (C57BL/6 mice) | trichrome (collagen) levels in the alveoli (C57L/J (L/J) mice [4]; C57L/J lung 15 weeks post-15 Gy, single dose 24 h post-RT) | alveolar collagen deposition (quantified trichrome area normalized for alveolar tissue area) (C57L/J (L/J) mice [4]; C57L/J, 15 weeks post-high dose RT, RT+PBS vs RT+77427 P<0.001) | hydroxyproline content of whole lung (total lung collagen) (C57L/J (L/J) mice [5])
CCN1C=CC=C/C1=C1/C2=NC(=C(c3cccc[n+]3CC)C3=NC(=C(c4cccc[n+]4CC)c4ccc([n-]4)C(c4cccc[n+]4CC)=C4C=CC1=N4)C=C3)C=C2.[Cl-].[Cl-].[Cl-].[Cl-].[Cl-].[Mn+3] [AEOL10113] | can reduce the severity of RTP |  |  |  |  |  |  |  | 
Nc1nc(Cl)cc(NCCO)n1 [compound 77427] |  | greatly reduces SMA+ myofibroblasts in small distal blood vessels | abrogated | over 50% | reduced | abrogates this interstitial SMA staining | reduced trichrome levels in the alveoli to near baseline levels | abrogates alveolar collagen deposition | do not have elevated hydroxyproline content
